# Assay results published in patent publication US6914045B2, “Glycopeptide antibiotics” (Wyeth Holdings Corporation, priority 2001, dated 2005).
# Key:
# Experiment in all cases: in vitro antibacterial evaluation, MIC by broth dilution
# Format in all cases: cell-based
# Staphylococcus sp. = conditions: broth dilution, 18 hours at 35° C.; for MIC Staphylococcus aureus (GC 1131): strain GC 1131
# In short: (§1)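 MIC, the lowest antibiotic concentration preventing growth, was read across 64-0.06 μg/mL with 5×10^5 CFU/mL inoculum. Method followed NCCLS M7-A2 broth dilution using Mueller-Hinton II; Gram-positive strains covered recent methicillin-, penicillin- and/or vancomycin-resistant clinical isolates.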
# Escherichia coli = test system: Escherichia coli
# In short: as §1
# Enterococcus sp. = conditions: broth dilution, 18 hours at 35° C.
# In short: as §1
# Streptococcus sp. = conditions: broth dilution, 18 hours at 35° C.
# In short: as §1
compound,measurement,setting,value
CSc1ccc(C2OCC3OC(OC4C(CO)OC(Oc5ccc(CC6NC(=O)C(C(C)c7ccccc7)NC(=O)CNC(=O)C(CO)NC(=O)C(C(O)C7CNC(=N)N7C7OC(CO)C(O)C(O)C7O)NC(=O)C(C(O)C7CNC(=N)N7)NC6=O)cc5)C(O)C4O)C(O)C(O)C3O2)cc1 (centres unmarked) [Example 144],MIC Staphylococcus aureus (GC 1131),Staphylococcus sp.; inoculum 5×10^5 CFU/mL,1 µg/mL
same,MIC Staphylococcus aureus (ATCC 29213),Staphylococcus sp.; strain ATCC 29213,2 µg/mL
same,MIC Staphylococcus aureus (GC 1131),Staphylococcus sp.,1 µg/mL
same,MIC Staphylococcus aureus (GC 3051),Staphylococcus sp.; strain GC 3051,1 µg/mL
same,MIC Staphylococcus aureus (GC 3053),Staphylococcus sp.; strain GC 3053,1 µg/mL
same,MIC Staphylococcus aureus (GC 4541),Staphylococcus sp.; strain GC 4541,0.5 µg/mL
same,MIC Staphylococcus aureus (GC 4542),Staphylococcus sp.; strain GC 4542,0.5 µg/mL
same,MIC Staphylococcus aureus-SMITH (GC 4543),Staphylococcus sp.; strain GC 4543,1 µg/mL
same,MIC Staphylococcus aureus (GC 4544),Staphylococcus sp.; strain GC 4544,4 µg/mL
same,MIC Staphylococcus aureus (GC 4545),Staphylococcus sp.; strain GC 4545,1 µg/mL
same,MIC Staphylococcus haemolyticus (GC 4546),Staphylococcus sp.; strain GC 4546,1 µg/mL
same,MIC Coagulase Negative Staphylococcus (GC 4547),Staphylococcus sp.; strain GC 4547,1 µg/mL
same,MIC Coagulase Negative Staphylococcus (GC 4548),Staphylococcus sp.; strain GC 4548,0.25 µg/mL
same,MIC Coagulase Negative Staphylococcus (GC 4549),Staphylococcus sp.; strain GC 4549,0.12 µg/mL
same,MIC Coagulase Negative Staphylococcus (GC 4551),Staphylococcus sp.; strain GC 4551,0.5 µg/mL
same,MIC Coagulase Negative Staphylococcus (GC 6257),Staphylococcus sp.; strain GC 6257,0.25 µg/mL
same,MIC Staphylococcus aureus-SMITH (GC 4543),Staphylococcus sp.; strain SMITH GC 4543,1 µg/mL
same,MIC Escherichia coli (ATCC 25922),"Escherichia coli; strain ATCC 25922, 18 hours at 35° C.",32 µg/mL
same,MIC Escherichia coli (GC 4559),"Escherichia coli; strain GC 4559, 18 hours at 35° C.",32 µg/mL
same,MIC Enterococcus avium (GC 4558),Enterococcus sp.; Enterococcus avium (GC 4558),4 µg/mL
same,MIC Enterococcus faecalis (ATCC 29212),Enterococcus sp.; Enterococcus faecalis (ATCC 29212),2 µg/mL
same,MIC Enterococcus faecalis (GC 2242),Enterococcus sp.; Enterococcus faecalis (GC 2242),2 µg/mL
same,MIC Enterococcus faecalis (GC 2691),Enterococcus sp.; Enterococcus faecalis (GC 2691),2 µg/mL
same,MIC Enterococcus faecalis (GC 3059),Enterococcus sp.; Enterococcus faecalis (GC 3059),4 µg/mL
same,MIC Enterococcus faecalis (GC 4552),Enterococcus sp.; Enterococcus faecalis (GC 4552),2 µg/mL
same,MIC Enterococcus faecalis (GC 4553),Enterococcus sp.; Enterococcus faecalis (GC 4553),4 µg/mL
same,MIC Enterococcus faecalis (GC 4554),Enterococcus sp.; Enterococcus faecalis (GC 4554),4 µg/mL
same,MIC Enterococcus faecalis (GC 6189),Enterococcus sp.; Enterococcus faecalis (GC 6189),2 µg/mL
same,MIC Enterococcus faecium (GC 2243),Enterococcus sp.; Enterococcus faecium (GC 2243),2 µg/mL
same,MIC Enterococcus faecium (GC 4556),Enterococcus sp.; Enterococcus faecium (GC 4556),2 µg/mL
same,MIC Enterococcus faecium (GC 4557),Enterococcus sp.; Enterococcus faecium (GC 4557),2 µg/mL
same,MIC Enterococcus faecalis (ATCC 29212),Enterococcus sp.; strain ATCC 29212,2 µg/mL
same,MIC Enterococcus faecalis (GC 2242),Enterococcus sp.; strain GC 2242,2 µg/mL
same,MIC Enterococcus faecium (GC 2243),Enterococcus sp.; strain GC 2243,2 µg/mL
same,MIC Enterococcus faecalis (GC 2691),Enterococcus sp.; strain GC 2691,2 µg/mL
same,MIC Enterococcus faecalis (GC 3059),Enterococcus sp.; strain GC 3059,4 µg/mL
same,MIC Enterococcus faecalis (GC 4552),Enterococcus sp.; strain GC 4552,2 µg/mL
same,MIC Enterococcus faecalis (GC 4553),Enterococcus sp.; strain GC 4553,4 µg/mL
same,MIC Enterococcus faecalis (GC 4554),Enterococcus sp.; strain GC 4554,4 µg/mL
same,MIC Enterococcus faecium (GC 4556),Enterococcus sp.; strain GC 4556,2 µg/mL
same,MIC Enterococcus faecium (GC 4557),Enterococcus sp.; strain GC 4557,2 µg/mL
same,MIC Enterococcus avium (GC 4558),Enterococcus sp.; strain GC 4558,4 µg/mL
same,MIC Enterococcus faecalis (GC 6189),Enterococcus sp.; strain GC 6189,2 µg/mL
same,MIC Streptococcus agalactiae (GC 4564),Streptococcus sp.; Streptococcus agalactiae (GC 4564),<0.06 µg/mL
same,MIC Streptococcus pneumoniae (ATCC 6301),Streptococcus sp.; Streptococcus pneumoniae (ATCC 6301),<0.06 µg/mL
same,MIC Streptococcus pneumoniae (GC 1894),Streptococcus sp.; Streptococcus pneumoniae (GC 1894),<0.06 µg/mL
same,MIC Streptococcus pneumoniae (GC 4565),Streptococcus sp.; Streptococcus pneumoniae (GC 4565),<0.06 µg/mL
same,MIC Streptococcus pyogenes (GC 4563),Streptococcus sp.; Streptococcus pyogenes (GC 4563),<0.06 µg/mL
same,MIC Streptococcus pneumoniae (ATCC 6301),Streptococcus sp.; strain ATCC 6301,<0.06 µg/mL
same,MIC Streptococcus pneumoniae (GC 1894),Streptococcus sp.; strain GC 1894,<0.06 µg/mL
same,MIC Streptococcus pyogenes (GC 4563),Streptococcus sp.; strain GC 4563,<0.06 µg/mL
same,MIC Streptococcus agalactiae (GC 4564),Streptococcus sp.; strain GC 4564,<0.06 µg/mL
same,MIC Streptococcus pneumoniae (GC 4565),Streptococcus sp.; strain GC 4565,<0.06 µg/mL
